Test results published in ChEMBL document CHEMBL1145159 (J Med Chem, 2005).
“And” between values parts separate entries of the source, which are not always exact repeats. Identical values can stand only once. Peptide text beside a SMILES is read from it.

How the values were obtained:
[1] = biological target: T1, Neuronal acetylcholine receptor; alpha3/beta2 (Homo sapiens, UniProt P17787+P32297); experiment: Inhibitory concentration against Nicotinic acetylcholine receptor alpha3-beta2; assay type: protein-complex assay
T1 sequence (P17787 whole entry): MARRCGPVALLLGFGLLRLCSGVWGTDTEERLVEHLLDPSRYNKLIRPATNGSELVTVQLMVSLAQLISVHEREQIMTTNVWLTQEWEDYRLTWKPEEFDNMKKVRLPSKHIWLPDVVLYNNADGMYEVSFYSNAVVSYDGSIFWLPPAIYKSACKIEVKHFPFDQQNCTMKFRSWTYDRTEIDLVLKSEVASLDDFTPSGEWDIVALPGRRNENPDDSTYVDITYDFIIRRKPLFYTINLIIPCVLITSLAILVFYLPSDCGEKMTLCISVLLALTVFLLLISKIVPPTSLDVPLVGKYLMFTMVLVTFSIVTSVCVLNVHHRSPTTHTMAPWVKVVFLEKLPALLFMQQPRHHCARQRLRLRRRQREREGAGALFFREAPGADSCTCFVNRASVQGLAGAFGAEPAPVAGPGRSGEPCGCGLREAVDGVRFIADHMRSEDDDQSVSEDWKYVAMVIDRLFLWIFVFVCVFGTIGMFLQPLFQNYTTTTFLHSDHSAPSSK
T1 sequence (P32297 whole entry): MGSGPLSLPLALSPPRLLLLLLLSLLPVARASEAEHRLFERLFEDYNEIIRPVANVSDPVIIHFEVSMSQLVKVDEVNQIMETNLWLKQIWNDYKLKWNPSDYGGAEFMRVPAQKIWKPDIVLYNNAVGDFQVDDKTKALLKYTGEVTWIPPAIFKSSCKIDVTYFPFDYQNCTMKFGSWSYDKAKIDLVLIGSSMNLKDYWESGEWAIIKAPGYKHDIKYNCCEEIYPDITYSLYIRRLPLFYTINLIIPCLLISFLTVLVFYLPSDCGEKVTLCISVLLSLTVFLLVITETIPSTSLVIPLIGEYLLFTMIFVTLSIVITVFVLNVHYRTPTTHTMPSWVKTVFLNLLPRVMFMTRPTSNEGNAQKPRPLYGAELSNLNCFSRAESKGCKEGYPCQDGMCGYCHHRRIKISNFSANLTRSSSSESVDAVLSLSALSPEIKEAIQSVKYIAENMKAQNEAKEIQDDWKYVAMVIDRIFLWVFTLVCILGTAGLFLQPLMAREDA

[2] = biological target: T2, Neuronal acetylcholine receptor subunit alpha-7 (Homo sapiens, UniProt P36544); experiment: Inhibitory concentration against Nicotinic acetylcholine receptor alpha 7
T2 sequence (P36544 whole entry): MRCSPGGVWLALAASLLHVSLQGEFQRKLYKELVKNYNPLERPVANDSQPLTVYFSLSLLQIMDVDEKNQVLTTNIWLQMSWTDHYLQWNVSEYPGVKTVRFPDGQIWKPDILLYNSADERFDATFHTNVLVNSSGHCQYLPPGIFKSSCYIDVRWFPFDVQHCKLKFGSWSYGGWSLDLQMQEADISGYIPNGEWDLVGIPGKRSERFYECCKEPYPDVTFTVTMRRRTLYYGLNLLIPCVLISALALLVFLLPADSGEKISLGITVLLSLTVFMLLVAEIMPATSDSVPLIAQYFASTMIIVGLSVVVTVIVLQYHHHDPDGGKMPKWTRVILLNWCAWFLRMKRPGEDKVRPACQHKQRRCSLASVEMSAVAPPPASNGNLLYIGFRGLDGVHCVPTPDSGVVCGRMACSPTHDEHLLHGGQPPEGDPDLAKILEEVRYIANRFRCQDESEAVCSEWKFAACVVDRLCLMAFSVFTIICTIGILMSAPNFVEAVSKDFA

[3] = biological target: T3, Neuronal acetylcholine receptor; alpha3/beta4 (Homo sapiens, UniProt P30926+P32297); experiment: Maximal response against Nicotinic acetylcholine receptor alpha3-beta4; assay type: protein-complex assay
T3 sequence (P30926 whole entry): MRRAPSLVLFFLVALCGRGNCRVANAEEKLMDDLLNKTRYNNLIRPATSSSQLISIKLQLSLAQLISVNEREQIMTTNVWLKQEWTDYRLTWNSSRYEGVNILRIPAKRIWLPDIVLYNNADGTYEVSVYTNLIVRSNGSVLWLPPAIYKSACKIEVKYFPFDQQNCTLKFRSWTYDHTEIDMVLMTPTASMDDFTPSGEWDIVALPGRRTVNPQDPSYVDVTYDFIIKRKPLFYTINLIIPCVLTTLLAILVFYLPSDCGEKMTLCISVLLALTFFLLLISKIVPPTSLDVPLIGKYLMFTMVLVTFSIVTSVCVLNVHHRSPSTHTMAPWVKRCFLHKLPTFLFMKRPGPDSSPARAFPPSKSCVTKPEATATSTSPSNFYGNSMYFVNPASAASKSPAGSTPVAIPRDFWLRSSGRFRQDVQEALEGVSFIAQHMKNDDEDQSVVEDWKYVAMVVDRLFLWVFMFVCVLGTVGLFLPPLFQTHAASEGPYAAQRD
T3 sequence (P32297 whole entry): as the sequence (P32297 whole entry) above

[4] = biological target: T4, Neuronal acetylcholine receptor; alpha4/beta2 (Homo sapiens, UniProt P17787+P43681); experiment: Maximal response against Nicotinic acetylcholine receptor alpha4-beta2; assay type: protein-complex assay
T4 sequence (P17787 whole entry): as the sequence (P17787 whole entry) above
T4 sequence (P43681 whole entry): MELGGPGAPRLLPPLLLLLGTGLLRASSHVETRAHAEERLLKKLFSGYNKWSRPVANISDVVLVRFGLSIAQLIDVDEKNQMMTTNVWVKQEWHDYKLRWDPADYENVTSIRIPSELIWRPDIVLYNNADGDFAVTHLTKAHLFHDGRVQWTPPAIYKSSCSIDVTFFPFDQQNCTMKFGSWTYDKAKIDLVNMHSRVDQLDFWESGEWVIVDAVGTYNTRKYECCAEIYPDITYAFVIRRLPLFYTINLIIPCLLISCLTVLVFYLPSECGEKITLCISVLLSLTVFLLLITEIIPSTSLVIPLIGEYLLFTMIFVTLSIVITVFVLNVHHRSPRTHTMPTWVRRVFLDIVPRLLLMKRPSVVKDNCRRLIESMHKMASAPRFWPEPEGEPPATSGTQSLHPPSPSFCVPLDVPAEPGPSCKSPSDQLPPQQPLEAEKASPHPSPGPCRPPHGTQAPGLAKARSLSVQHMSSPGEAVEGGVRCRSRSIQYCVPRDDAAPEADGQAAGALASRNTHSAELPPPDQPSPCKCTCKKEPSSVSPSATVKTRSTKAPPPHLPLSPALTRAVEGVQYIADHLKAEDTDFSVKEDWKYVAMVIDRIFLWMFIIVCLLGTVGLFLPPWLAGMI

[5] = biological target: T5, Neuronal acetylcholine receptor; alpha4/beta4 (Homo sapiens, UniProt P30926+P43681); experiment: Maximal response against Nicotinic acetylcholine receptor alpha4-beta4; assay type: protein-complex assay
T5 sequence (P30926 whole entry): as the sequence (P30926 whole entry) above
T5 sequence (P43681 whole entry): as the sequence (P43681 whole entry) above

[6] = biological target: Neuronal acetylcholine receptor subunit alpha-7 (Rattus norvegicus) (UniProt Q05941); experiment: Maximal response against Nicotinic acetylcholine receptor alpha 7
Neuronal acetylcholine receptor subunit alpha-7 (Rattus norvegicus), sequence (Q05941 whole entry): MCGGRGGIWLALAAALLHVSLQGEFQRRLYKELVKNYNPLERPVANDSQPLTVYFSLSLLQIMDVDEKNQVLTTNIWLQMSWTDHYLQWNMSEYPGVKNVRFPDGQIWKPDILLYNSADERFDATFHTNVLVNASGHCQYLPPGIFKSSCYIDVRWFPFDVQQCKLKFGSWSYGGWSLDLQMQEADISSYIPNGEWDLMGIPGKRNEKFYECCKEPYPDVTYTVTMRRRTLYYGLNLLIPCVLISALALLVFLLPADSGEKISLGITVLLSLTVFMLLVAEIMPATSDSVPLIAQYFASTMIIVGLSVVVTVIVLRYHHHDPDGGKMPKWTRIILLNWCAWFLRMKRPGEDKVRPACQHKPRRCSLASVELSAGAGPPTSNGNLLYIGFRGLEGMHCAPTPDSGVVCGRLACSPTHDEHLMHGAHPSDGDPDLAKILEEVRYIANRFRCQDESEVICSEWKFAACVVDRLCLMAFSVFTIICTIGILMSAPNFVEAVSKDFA

[7] = Effective concentration against Nicotinic acetylcholine receptor alpha4-beta2 expressed in xenopus oocytes; assay type: cell-based; details: oocyte
[8] = biological target: T1, Neuronal acetylcholine receptor; alpha3/beta2; experiment: Effective concentration against Nicotinic acetylcholine receptor alpha3-beta2 expressed in xenopus oocytes; assay type: cell-based, Oocyte
[9] = Effective concentration against Nicotinic acetylcholine receptor alpha3-beta4 expressed in xenopus oocytes; assay type: cell-based; details: oocyte
[10] = biological target: T6, Neuronal acetylcholine receptor; alpha2/beta4 (Homo sapiens, UniProt P30926+Q15822); experiment: Maximal response against Nicotinic acetylcholine receptor alpha2-beta4; assay type: protein-complex assay
T6 sequence (P30926 whole entry): as the sequence (P30926 whole entry) above
T6 sequence (Q15822 whole entry): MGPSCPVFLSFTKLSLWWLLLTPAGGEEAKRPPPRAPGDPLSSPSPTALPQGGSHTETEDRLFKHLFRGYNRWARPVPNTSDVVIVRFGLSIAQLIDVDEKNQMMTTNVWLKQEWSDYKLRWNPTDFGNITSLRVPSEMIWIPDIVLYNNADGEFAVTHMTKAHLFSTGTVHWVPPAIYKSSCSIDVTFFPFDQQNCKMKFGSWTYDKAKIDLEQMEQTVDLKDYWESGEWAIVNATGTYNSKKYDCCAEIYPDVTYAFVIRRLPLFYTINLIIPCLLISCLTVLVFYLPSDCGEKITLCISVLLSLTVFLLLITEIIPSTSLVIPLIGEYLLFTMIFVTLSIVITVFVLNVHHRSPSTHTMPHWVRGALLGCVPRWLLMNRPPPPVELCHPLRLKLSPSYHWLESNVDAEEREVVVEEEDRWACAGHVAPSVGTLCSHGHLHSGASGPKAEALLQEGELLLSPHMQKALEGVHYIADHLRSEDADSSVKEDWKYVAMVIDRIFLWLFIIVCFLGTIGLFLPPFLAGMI

[11] = biological target: T2, Neuronal acetylcholine receptor subunit alpha-7; experiment: Effective concentration against Nicotinic acetylcholine receptor alpha 7
[12] = biological target: T4, Neuronal acetylcholine receptor; alpha4/beta2; experiment: (§1) Inhibitory concentration against Nicotinic acetylcholine receptor alpha4-beta2; assay type: protein-complex assay
[13] = biological target: T6, Neuronal acetylcholine receptor; alpha2/beta4; experiment: Inhibitory concentration against Nicotinic acetylcholine receptor alpha2-beta4; assay type: protein-complex assay
[14] = biological target: T3, Neuronal acetylcholine receptor; alpha3/beta4; experiment: Inhibitory concentration against Nicotinic acetylcholine receptor alpha3-beta4; assay type: protein-complex assay
[15] = biological target: T6, Neuronal acetylcholine receptor; alpha2/beta4; experiment: Maximal response against Nicotinic acetylcholine receptor alpha2-beta4 expressed in HEK293 cells; assay type: cell-based
[16] = biological target: T1, Neuronal acetylcholine receptor; alpha3/beta2; experiment: Maximal response against Nicotinic acetylcholine receptor alpha3-beta2 expressed in HEK293 cells; assay type: cell-based
[17] = biological target: T4, Neuronal acetylcholine receptor; alpha4/beta2; experiment: Maximal response against Nicotinic acetylcholine receptor alpha4-beta2 expressed in HEK293 cells; assay type: cell-based
[18] = biological target: T1, Neuronal acetylcholine receptor; alpha3/beta2; experiment: Maximal response against Nicotinic acetylcholine receptor alpha3-beta2; assay type: protein-complex assay
[19] = Effective concentration against Nicotinic acetylcholine receptor alpha2-beta4 expressed in xenopus oocytes; assay type: cell-based; details: oocyte
[20] = Effective concentration against Nicotinic acetylcholine receptor alpha4-beta4 expressed in xenopus oocytes; assay type: cell-based; details: oocyte
[21] = biological target: T1, Neuronal acetylcholine receptor; alpha3/beta2; experiment: Effective concentration against Nicotinic acetylcholine receptor alpha3-beta2; assay type: protein-complex assay
[22] = biological target: T4, Neuronal acetylcholine receptor; alpha4/beta2; experiment: Effective concentration against Nicotinic acetylcholine receptor alpha4-beta2; assay type: protein-complex assay
[23] = biological target: T3, Neuronal acetylcholine receptor; alpha3/beta4; experiment: Effective concentration against Nicotinic acetylcholine receptor alpha3-beta4; assay type: protein-complex assay
[24] = biological target: T5, Neuronal acetylcholine receptor; alpha4/beta4; experiment: Effective concentration against Nicotinic acetylcholine receptor alpha4-beta4; assay type: protein-complex assay
[25] = biological target: T4, Neuronal acetylcholine receptor; alpha4/beta2; experiment: as §1; assay type: protein-complex assay; remark: listed apart in the source

CC(C)C[C@H](NC(=O)[C@H](C)NC(=O)[C@H](CS)NC(=O)[C@@H]1CCCN1C(=O)[C@@H]1CCCN1C(=O)[C@H](CC(C)C)NC(=O)[C@H](CO)NC(=O)[C@H](CS)NC(=O)[C@H](CS)NC(=O)CN)C(=O)N[C@@H](CO)C(=O)N[C@@H](CC(N)=O)C(=O)N1CCC[C@H]1C(=O)N[C@@H](CC(=O)O)C(=O)N[C@@H](Cc1ccc(O)cc1)C(=O)N[C@@H](CS)C(N)=O (H-GCCSLPPCALSNPDYC-NH2)
IC50 [1]: 0.061 µM | IC50 [2]: 0.061 µM

c1cncc(C2CC3CCC2N3)c1 (configuration not stated)
Rmax [3]: 61% | Rmax [4]: 112% | Rmax [5]: 147%

O=C1NCC2(CN3CCC2CC3)O1 (configuration not stated)
Rmax [6]: 78% | EC50 [7]: > 2000 µM | EC50 [8]: > 1000 µM | EC50 [9]: > 1000 µM

COc1cc2c(cn1)C1NCCC1CC2 (configuration not stated)
Rmax [10]: 22% | Rmax [3]: 5% | Rmax [4]: 8% | Rmax [5]: 44% | EC50 [11]: > 300 µM

CC[N+](CC)(CC)CCOc1ccc(/C=C/c2ccccc2)cc1
Concentration [12]: 3.2 µM

CCN1C[C@]2(COC(=O)c3ccccc3N3C(=O)C[C@H](C)C3=O)CC[C@H](OC)[C@@]34[C@@H]5C[C@H]6[C@H](OC)[C@@H]5[C@](O)(C[C@@H]6OC)[C@](O)([C@@H](OC)[C@H]23)[C@@H]14 [METHYLLYCACONITINE]
IC50 [13]: > 1 µM | IC50 [1]: > 1 µM | IC50 [14]: > 1 µM | IC50 [2]: > 1 µM

Clc1ccc(C2CC3CCC2N3)cn1 (configuration not stated)
Rmax [5]: 99% and 85% | Rmax [6]: 97% | Rmax [15]: 115% | Rmax [16]: 163% | Rmax [17]: 117%

Clc1ccc(OC[C@@H]2CCN2)cn1
Rmax [3]: 166% | Rmax [4]: 161% | Rmax [6]: 85%

c1cncc(OC[C@@H]2CCN2)c1
Rmax [3]: 100% | Rmax [4]: 185% | Rmax [6]: 100%

O=c1cccc2n1C[C@@H]1CNC[C@H]2C1 [CYTISINICLINE]
Rmax [10]: 58% | Rmax [18]: 23 µM | Rmax [4]: 11% and 2% | Rmax [6]: 90% and 105% | Rmax [16]: 55% | Rmax [17]: 42% | EC50 [7]: 2.7 µM | EC50 [19]: 39 µM | EC50 [8]: 67 µM | EC50 [9]: 72 µM | EC50 [20]: 0.9 µM

CN1CCC[C@H]1CCSc1ccc(O)cc1
Rmax [10]: 102% | Rmax [18]: 9% | Rmax [3]: 71% | Rmax [4]: 13% | Rmax [5]: 62% | EC50 [11]: > 10 µM

CN(C)c1ccc(/C=C/C=C2\CCCN=C2c2cccnc2)cc1
Rmax [4]: 0% | Rmax [6]: 76%

c1cnc2c(c1)O[C@H]1CCN3CC[C@@]1(C2)C3 [DIANICLINE]
Rmax [4]: 19% | EC50 [21]: > 100 µM | EC50 [22]: > 100 µM

Clc1ccc(C2=CCC[C@H]3CCC2N3)cn1
Rmax [10]: 50% | Rmax [18]: 50% | Rmax [3]: 50% | Rmax [4]: 15% | Rmax [5]: 70% | Rmax [6]: 55%

O=C(NC1CN2CCC1CC2)c1ccc(-c2ccsc2)s1 (configuration not stated)
Rmax [6]: 100% | EC50 [23]: > 10 µM | EC50 [22]: > 10 µM | EC50 [24]: > 10 µM

C[C@H](NC(=O)[C@H](Cc1ccccc1)NC(=O)[C@H](CS)NC(=O)[C@@H]1CCCN1C(=O)[C@@H]1CCCN1C(=O)[C@H](Cc1ccc(O)cc1)NC(=O)[C@H](CO)NC(=O)[C@H](CS)NC(=O)[C@H](CS)NC(=O)CN)C(=O)N[C@H](C(=O)N[C@@H](CC(N)=O)C(=O)N[C@@H](CO)C(=O)NCC(=O)N[C@@H](Cc1ccc(O)cc1)C(=O)N[C@@H](CS)C(N)=O)[C@@H](C)O
IC50 [14]: > 0.75 µM

CNC1(C)C2CCC(C2)C1(C)C (configuration not stated) [MECAMYLAMINE]
IC50 [13]: 3.1 µM and 16 µM | IC50 [1]: 0.28 µM | IC50 [2]: 12.3 µM | Concentration [12]: 0.78 µM

H-AGGSDRRCRWR-NH2
IC50 [2]: 0.441 µM

CN1C2CC[C@@H]1CC2c1ccnnc1 (some centres not stated)
EC50 [11]: 25 µM | EC50 [21]: 0.013 µM | EC50 [22]: 0.32 µM

CC(NC(C)(C)C)C(=O)c1cccc(Cl)c1 (configuration not stated) [BUPROPION]
IC50 [2]: 50 µM

Clc1ccc(OC[C@H]2CCN2)cn1
Rmax [3]: 116%

CCCC1CCCNC(c2cccnc2)C1 (configuration not stated)
Rmax [18]: 5% | Rmax [3]: 2% | Rmax [4]: 3% | EC50 [11]: 44 µM

Fc1ccc(C2CC3CCC2N3)cn1 (configuration not stated)
Rmax [3]: 40% | Rmax [4]: 41% | Rmax [5]: 131%

COc1ccc(/C=C2\CCCN=C2c2cccnc2)c(OC)c1 [GTS-21]
Rmax [4]: 0% | Rmax [6]: 23% and 28% | EC50 [23]: > 10 µM | EC50 [22]: > 10 µM | EC50 [24]: > 10 µM

CSCC[C@H](NC(=O)[C@H](CC(N)=O)NC(=O)[C@H](CS)NC(=O)[C@@H]1CCCN1C(=O)[C@H](CCCNC(=N)N)NC(=O)[C@H](CC(=O)O)NC(=O)[C@H](CO)NC(=O)[C@H](CS)NC(=O)[C@H](CS)NC(=O)CN)C(=O)N[C@@H](CC(N)=O)C(=O)N[C@@H](CC(N)=O)C(=O)N1CCC[C@H]1C(=O)N[C@@H](CC(=O)O)C(=O)N[C@@H](Cc1ccc(O)cc1)C(=O)N[C@@H](CS)C(N)=O (H-GCCSDRPCNMNNPDYC-NH2)
IC50 [1]: 0.03 µM | IC50 [14]: 0.03 µM | IC50 [2]: 0.03 µM

C[N+](C)(C)CCO
Rmax [6]: 90% and 100%

C[C@H](NC(=O)[C@H](C)NC(=O)[C@H](CS)NC(=O)[C@H](C)NC(=O)[C@@H]1CCCN1C(=O)[C@H](Cc1c[nH]cn1)NC(=O)[C@H](CO)NC(=O)[C@H](CS)NC(=O)[C@H](CS)NC(=O)CNC(=O)CN)C(=O)N[C@@H](CC(N)=O)C(=O)N[C@@H](CC(N)=O)C(=O)N[C@@H](CCC(N)=O)C(=O)N[C@@H](CC(=O)O)C(=O)N[C@@H](Cc1ccc(O)cc1)C(=O)N[C@@H](CS)C(N)=O
IC50 [1]: 0.0003 µM | IC50 [14]: 0.0003 µM | IC50 [25]: 0.0003 µM | IC50 [2]: 0.0003 µM

O=c1c(I)ccc2n1C[C@@H]1CNC[C@H]2C1
Rmax [4]: 47% | Rmax [5]: 105% | Rmax [6]: 107%

O=c1c(Br)ccc2n1C[C@@H]1CNC[C@H]2C1
Rmax [4]: 23% | Rmax [5]: 70% | Rmax [6]: 100%

CCOc1cncc(/C=C/CCN)c1
Rmax [3]: 55% | Rmax [5]: 16%

CN1CCC[C@H]1COc1cnc(Cl)c(-c2ccc(Cl)cc2)c1
IC50 [14]: 9.2 µM | IC50 [2]: 8.5 µM | Concentration [12]: 0.96 µM

Cc1ncccc1OC[C@@H]1CCN1
Rmax [3]: < 15% | Rmax [6]: > 1000%

CC(=O)CCN1C[C@@H]2C[C@H](C1)c1cccc(=O)n1C2
Rmax [3]: 11% | Rmax [4]: 3% | Rmax [6]: > 100%

O=C(NC1CN2CCC1CC2)c1ccc(-c2ccccn2)s1 (configuration not stated)
Rmax [6]: 100% | EC50 [23]: > 10 µM | EC50 [22]: > 10 µM | EC50 [24]: > 10 µM

C[C@H](NC(=O)[C@H](Cc1ccccc1)NC(=O)[C@H](CS)NC(=O)[C@@H]1CCCN1C(=O)[C@@H]1CCCN1C(=O)[C@H](Cc1ccc(O)cc1)NC(=O)[C@H](CO)NC(=O)[C@H](CS)NC(=O)[C@H](CS)NC(=O)CN)C(=O)N[C@H](C(=O)N[C@@H](CC(N)=O)C(=O)N[C@@H](CO)C(=O)N[C@@H](CC(=O)O)C(=O)N[C@@H](Cc1ccc(O)cc1)C(=O)N[C@@H](CS)C(N)=O)[C@@H](C)O
IC50 [14]: > 0.75 µM

CC[C@H](C)[C@H](NC(=O)[C@H](Cc1c[nH]cn1)NC(=O)[C@H](CCC(N)=O)NC(=O)[C@H](CC(N)=O)NC(=O)[C@H](CC(N)=O)NC(=O)CNC(=O)[C@H](C)NC(=O)[C@H](CS)NC(=O)[C@H](C)NC(=O)[C@@H]1CCCN1C(=O)[C@H](Cc1c[nH]cn1)NC(=O)[C@H](CO)NC(=O)[C@H](CS)NC(=O)[C@H](CS)NC(=O)CN)C(=O)N[C@@H](CS)C(N)=O
IC50 [1]: 0.0011 µM | IC50 [25]: 0.0011 µM | IC50 [2]: 0.0011 µM
